Measured values published in patent publication US10584346B2, “HSF-like transcription factor, TBF1, is a major molecular switch for growth-to-defense transition in plants” (Duke University, priority 2011, dated 2020).

Key:
[1] = system: TBF1 promoter; experiment: Induction of the TBF1 promoter by chemical inducers
[2] = system: Arabidopsis seedlings; experiment: Tunicamycin sensitivity assay (seedling recovery/survival); assay type: in vivo; conditions: two-day treatment with tunicamycin at 300 μg/L, measured 10 days later
Procedure: (Panel 11B) Seedling recovery after a two-day treatment with the UPR inducer tunicamycin at 300 μg/L was measured 10 days later by counting the percentage of surviving seedlings (left), and by phenotype observations (right). Error bars represent standard deviation of three replicates. This experiment was repeated five times with similar results. Statistical analysis was performed using the Student's t-test, ***, p-value≤0.001.
This assay was performed as described in earlier studies.

[3] = system: Psm ES4326; experiment: Bacterial infection assay: SA- and MAMP-induced resistance to Psm ES4326 in Arabidopsis plants; assay type: in vivo, Pseudomonas syringae pv. maculicola; conditions: 1 mM SA spray 24 hrs prior to infection, Psm ES4326 OD600nm=0.001
Procedure: Infection of Arabidopsis plants with Pseudomonas syringae pv. maculicola (Psm) ES4326 was performed as described previously. To test for enhanced disease susceptibility, a bacterial suspension at OD600nm=0.0001 was infiltrated into 2-3 leaves per plant and 12 plants/genotype. Bacterial growth was quantified 3 days later. To test for SAR and MAMP-induced resistance, plants were pre-treated with relevant compounds (1 mM SA, spray 24 hrs prior to infection; 10 μM elf18, infiltration 2 hrs prior to infection; 10 μM flg22, infiltration 2 hrs prior to infection), and subsequently inoculated with Psm ES4326 (OD600nm=0.001) into 2-3 leaves per plant and 12 plants/genotype/treatment. Sampling was performed 3 days post inoculation.

[4] = system: Arabidopsis seedlings; experiment: Seedling growth (fresh weight) on MS media supplemented with SA, elf18 or flg22; assay type: in vivo; conditions: WT plants; 10 days on MS with increasing concentrations of SA or 10 μM elf18
Procedure: (Panel 11A) Fresh weight of ten seedlings grown for 10 days on plates with MS growth media (Ctrl), MS supplemented with increasing concentrations of SA or 10 μM elf18. Error bars represent the standard deviation of three replicates. This experiment was repeated three times with similar results. Statistical analysis was performed using the Student's t-test, *, p-value<0.05, **, p-value<0.01, ***, p-value≤0.001.
Fresh weight of ten seedlings grown for 10 days on plates with regular MS growth media (−f1g22) or MS supplemented with 10 μM f1g22 (+f1g22). Error bars represent standard deviation of three replicates. The experiment was repeated three times with similar results.

Molecule: CC1=CC(=O)CC(C)(C)[C@@]1(O)/C=C/C(C)=C\C(=O)O [abscisic acid]
- induction of the TBF1 promoter [1]: shown to induce the TBF1 promoter

Molecule: O=[N+]([O-])[O-].[Ag+] [AgNO3]
- induction of the TBF1 promoter [1]: shown to induce the TBF1 promoter

Molecule: OC[C@@H](O)[C@@H](O)[C@H](O)[C@H](O)CO [mannitol]
- induction of the TBF1 promoter [1]: shown to induce the TBF1 promoter

Molecule: C=C [ethylene]
- induction of the TBF1 promoter [1]: shown to induce the TBF1 promoter

Molecule: CC/C=C\C[C@H]1C(=O)CC[C@@H]1CC(=O)O [jasmonic acid]
- induction of the TBF1 promoter [1]: shown to induce the TBF1 promoter

Molecule: [Cl-].[Na+] [NaCl]
- induction of the TBF1 promoter [1]: shown to induce the TBF1 promoter

Molecule: C[C@@H]1C[C@@H]([C@H](O)CC2CC(=O)NC(=O)C2)C(=O)[C@@H](C)C1 [cycloheximide]
- induction of the TBF1 promoter [1]: shown to induce the TBF1 promoter

Molecule: CC/C=C\CC1C(=O)CCC1CC(=O)OC (centres unmarked) [methyl ester of jasmonic acid]
- induction of the TBF1 promoter [1]: shown to induce the TBF1 promoter

Molecule: tunicamycin
- seedling survival rate ([2]; WT): ~60%
- seedling survival rate ([2]; tbf1 mutant): ~20%

Molecule: O=C(O)c1ccccc1O [SA, salicylic acid]
- reduction in Psm ES4326 growth in response to induction by SA ([3]; WT plants, 3 days post inoculation): ~2 log
- reduction in Psm ES4326 growth in response to induction by SA ([3]; tbf1 mutant): less than 1 log
- growth of seedlings (fresh weight) [4]: significantly inhibited
- induction of the TBF1 promoter [1]: shown to induce the TBF1 promoter
